# Assay results: ChEMBL document CHEMBL1201862, “PubChem BioAssay data set” (2004)
# Calls of active or inactive are those of the source.
# Assays:
# [1] = viability of PTEN-deleted HCT116 cells – cell-based, HCT116 PTEN knockout, dose response (AID 1047); assay type: functional;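 also: HCT116 colon tumor cells with PTEN knocked out; cells exposed to compound for 60 hours before readout; potency for loss of cell viability measured by luminescence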
# [2] = molecular target: Dual specificity protein kinase CLK1 (Homo sapiens, UniProt P49759); test: inhibition of human CLK1 activity – biochemical, cherry-picked samples, selectivity assay for Dyrk1A inhibitor project, dose response (AID 588811)
# [3] = molecular target: Dual specificity tyrosine-phosphorylation-regulated kinase 1A (Rattus norvegicus, UniProt Q63470); assay type: biochemical, Homo sapiens
# [4] = cAMP pathway inhibition in counterscreen cell line – TR-FRET cAMP detection, counter-screen for MC4R biased antagonist project, dose response (AID 602305); assay type: functional, cell-based;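 also: U2OS cells stimulated with forskolin near its EC80 as the cAMP inducer; potency is for inhibition of forskolin-stimulated cAMP signaling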
# [5] = molecular target: Glycogen synthase kinase-3 beta (Homo sapiens, UniProt P49841); test: Inhibition of Human GSK-3 beta Activity Measured in Biochemical System Using Microfluidics - 2063-05_Inhibitor_Dose_DryPowder_Activity_Set2. [Related pubchem assays (depositor defined):AID2709]
# [6] = viability of HCT116 lacking mutant beta-catenin – cell-based, human colon tumor, dose response (AID 1045); assay type: functional;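 also: HCT116 colon tumor cells with beta catenin knocked out; cells exposed to compound for 60 hours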
# [7] = molecular target: Glycogen synthase kinase-3 alpha (Homo sapiens, UniProt P49840); test: Inhibition of Human GSK-3 alpha Activity Measured in Biochemical System Using Microfluidics - 2063-06_Inhibitor_Dose_DryPowder_Activity_Set2. [Related pubchem assays (depositor defined):AID2709]
# Melanocortin receptor 4 = Melanocortin receptor 4 (Homo sapiens, UniProt P32245); test: inhibitors of MC4R cAMP signaling – cell-based, TR-FRET, biased antagonists, dose response (AID 602298); assay type: functional;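 also: antagonist potency against agonist-stimulated cAMP production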
# Hexokinase HKDC1 = molecular target: T1, Hexokinase HKDC1 (Homo sapiens, UniProt Q2TB90); test: SAR analysis of small molecule inhibitors of hexokinase domain containing I (HKDC1). [Related pubchem assays (depositor defined):AID493160, AID493190]; assay type: functional
# T1 sequence (Q2TB90 whole entry): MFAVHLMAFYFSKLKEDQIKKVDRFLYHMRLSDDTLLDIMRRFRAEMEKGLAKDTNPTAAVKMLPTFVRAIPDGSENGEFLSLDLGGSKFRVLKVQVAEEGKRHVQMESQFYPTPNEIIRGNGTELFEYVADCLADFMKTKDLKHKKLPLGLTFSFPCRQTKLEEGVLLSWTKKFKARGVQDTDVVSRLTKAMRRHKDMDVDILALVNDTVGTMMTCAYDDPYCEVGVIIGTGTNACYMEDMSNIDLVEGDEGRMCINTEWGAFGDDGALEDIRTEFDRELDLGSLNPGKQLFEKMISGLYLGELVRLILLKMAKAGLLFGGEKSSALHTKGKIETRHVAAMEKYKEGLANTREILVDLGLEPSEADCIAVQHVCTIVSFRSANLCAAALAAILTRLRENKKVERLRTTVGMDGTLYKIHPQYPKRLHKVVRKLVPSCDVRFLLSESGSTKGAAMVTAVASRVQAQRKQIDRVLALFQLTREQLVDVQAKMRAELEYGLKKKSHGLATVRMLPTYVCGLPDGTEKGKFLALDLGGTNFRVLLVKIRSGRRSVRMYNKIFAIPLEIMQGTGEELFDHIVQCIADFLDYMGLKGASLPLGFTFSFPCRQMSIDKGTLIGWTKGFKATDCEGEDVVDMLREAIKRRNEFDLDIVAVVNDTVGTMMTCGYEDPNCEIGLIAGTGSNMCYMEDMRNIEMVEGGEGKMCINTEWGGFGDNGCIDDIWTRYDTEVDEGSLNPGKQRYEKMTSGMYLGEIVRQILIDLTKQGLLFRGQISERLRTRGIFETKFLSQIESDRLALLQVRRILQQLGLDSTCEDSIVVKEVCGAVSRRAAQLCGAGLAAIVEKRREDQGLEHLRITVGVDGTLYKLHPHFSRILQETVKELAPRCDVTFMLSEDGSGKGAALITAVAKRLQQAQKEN
# Hexokinase-1 = molecular target: T2, Hexokinase-1 (Homo sapiens, UniProt P19367); test: SAR analysis of small molecule inhibitors of hexokinase domain containing I (HKDC1) in the hexokinase 1 selectivity assay. [Related pubchem assays (depositor defined):AID493160, AID493190]; assay type: functional
# T2 sequence (P19367 whole entry): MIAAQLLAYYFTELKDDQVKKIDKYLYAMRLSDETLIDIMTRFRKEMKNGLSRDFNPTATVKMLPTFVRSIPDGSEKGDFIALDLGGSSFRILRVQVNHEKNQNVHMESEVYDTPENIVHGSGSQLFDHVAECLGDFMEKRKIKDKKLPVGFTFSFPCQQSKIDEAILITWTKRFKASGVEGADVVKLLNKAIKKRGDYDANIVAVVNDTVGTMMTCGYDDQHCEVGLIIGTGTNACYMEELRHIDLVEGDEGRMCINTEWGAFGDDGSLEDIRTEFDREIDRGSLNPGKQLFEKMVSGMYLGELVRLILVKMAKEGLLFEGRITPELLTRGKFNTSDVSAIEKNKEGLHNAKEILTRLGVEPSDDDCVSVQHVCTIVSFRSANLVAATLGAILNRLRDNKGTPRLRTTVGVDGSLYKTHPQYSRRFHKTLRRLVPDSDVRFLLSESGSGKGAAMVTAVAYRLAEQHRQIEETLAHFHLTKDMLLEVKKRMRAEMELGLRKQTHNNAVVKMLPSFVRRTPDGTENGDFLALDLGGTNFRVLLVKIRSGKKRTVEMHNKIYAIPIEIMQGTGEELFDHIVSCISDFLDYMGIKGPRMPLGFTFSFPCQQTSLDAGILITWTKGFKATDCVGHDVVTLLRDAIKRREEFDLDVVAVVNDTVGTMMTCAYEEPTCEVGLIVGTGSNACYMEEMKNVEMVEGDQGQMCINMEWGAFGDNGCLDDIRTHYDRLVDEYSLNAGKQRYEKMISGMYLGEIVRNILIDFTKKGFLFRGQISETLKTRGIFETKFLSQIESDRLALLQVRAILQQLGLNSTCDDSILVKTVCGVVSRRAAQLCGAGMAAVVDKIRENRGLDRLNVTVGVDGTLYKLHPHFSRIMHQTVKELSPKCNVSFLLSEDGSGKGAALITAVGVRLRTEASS
# [8] = blockers of bursicon-stimulated LGR2 cAMP reporter – cell-based, HEK293, CRE-luciferase reporter, cherry pick, set 2, dose response (AID 743343); assay type: functional;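 also: transfected cells were stimulated with diluted bursicon conditioned medium after compound addition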
# [9] = blockers of HIV-1 envelope-mediated cell-cell fusion – cherry-pick, dose response (AID 652057); assay type: functional, cell-based
# [10] = off-target signal loss in HeLa-CEM21 co-culture – HeLa F-luc CTL cells, cherry-picked, counter-screen for HIV-1 Env fusion inhibitor project, dose response (AID 652040); assay type: functional, cell-based;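 also: potency for signal decrease marking cytotoxic or nonspecific inhibition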
# [11] = HEK-293T viability loss, compound-treated – cell-based, uHTS hits, cytotoxicity control for B/T-cell NF-kB inhibitor project, dose response (AID 489019); assay type: functional;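 also: IC50 reflects cytotoxicity as loss of cell viability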
# [12] = blockers of HIV-1 ZM109 envelope-driven cell-cell fusion – HeLa effector, CEM target cells, luciferase, cherry-pick, dose response (AID 652058); assay type: functional, cell-based;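 also: luciferase signal from HIV-1 Env mediated cell-cell fusion of effector and target cells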
# [13] = blockade of melanocortin 4 receptor signaling – cell-based, plate reader, cherry pick, counter-screen for LGR2 antagonist project, dose response (AID 743444); assay type: functional;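 also: transfected HEK 293 cells stimulated with alpha-MSH peptide; potency of inhibitors of the alpha-MSH evoked signal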
# H4 [14] = test: Inhibitors of Prion Protein 5' UTR mRNA Measured in Cell-Based System Using Plate Reader - 2078-01_Inhibitor_Dose_DryPowder_Activity. [Related pubchem assays (depositor defined):AID488894]; assay type: functional; details: Homo sapiens
# H4 [15] = test: Amyloid Precursor 5' UTR neuroblastoma cell reporter line Measured in Cell-Based System Using Plate Reader - 2078-04_Inhibitor_Dose_DryPowder_Activity. [Related pubchem assays (depositor defined):AID488894]; assay type: functional; details: Homo sapiens
# H4 [16] = test: inhibitors of control reporter signal in H4 cells – cell-based, plate reader, dry powder samples, counter-screen for prion reporter project, dose response (AID 540255); assay type: functional; details: Homo sapiens
# [17] = Luminescence-based counterscreen assay for KLF5 inhibitors: dose response cell-based high throughput screening assay to identify cytotoxic compounds using the IEC-6 intestinal epithelial cell line. [Related pubchem assays: 1700 (Primary screen.), 1834 (Confirmation screen.), 1858 (Summary AID.), 1905 (Counterscreen.)]; assay type: functional
# Paired box protein Pax-8 = Paired box protein Pax-8 (Homo sapiens, UniProt Q06710); test: PAX8 transcriptional activity inhibition in RMG-I – RMG-I cells, luciferase, cherry-pick, dose response (AID 687027); assay type: functional, cell-based;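 also: luciferase reporter driven by Pax8 target thyroperoxidase promoter measured by SteadyGlo luminescence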
# Jurkat = test: blockers of NF-kB activation in T cells – Jurkat, luciferase reporter, luminescence, B- and T-cell, dose response (AID 489004); assay type: functional, cell-based; details: Homo sapiens;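 also: NF-kB luciferase reporter Jurkat cells stimulated with PMA plus ionomycin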
# [18] = HIV-1 AD8 envelope cell-cell fusion blockers – cherry-pick, dose response (AID 652062); assay type: functional, cell-based;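 also: luciferase signal from cell-cell fusion driven by HIV-1 clade B AD8 Env; potency is for inhibitors of fusion seen as a drop in luminescence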
# [19] = molecular target: Luciferin 4-monooxygenase (Photinus pyralis, UniProt P08659); test: inhibition of purified Photinus pyralis luciferase – biochemical, dry powder samples, plate reader, dose response (AID 588451)
# [20] = molecular target: Multidrug resistance protein CDR1 (Candida albicans, UniProt P43071); test: Candida albicans Cdr1 pump inhibition curves – singleplex, Cherry Pick2 set, dose response (AID 623996); assay type: functional; details: read-out: EC50_MICROM
# [21] = molecular target: Benomyl/methotrexate resistance protein (Candida albicans, UniProt P28873); test: Candida albicans Mdr1 pump inhibition curves – singleplex, Cherry Pick1 hits, dose response (AID 588608); assay type: functional
# [22] = molecular target: Platelet-activating factor acetylhydrolase 2, cytoplasmic (Mus musculus, UniProt Q8VDG7); test: Late stage assay provider results from the probe development effort to identify inhibitors of PAFAH2: Fluorescence-based biochemical gel-based Activity-Based Protein Profiling (ABPP) IC50. [Related pubchem assays (depositor defined):AID492956, AID492969, AID493030]
# Sequence of Platelet-activating factor acetylhydrolase 2, cytoplasmic (Q8VDG7 whole entry): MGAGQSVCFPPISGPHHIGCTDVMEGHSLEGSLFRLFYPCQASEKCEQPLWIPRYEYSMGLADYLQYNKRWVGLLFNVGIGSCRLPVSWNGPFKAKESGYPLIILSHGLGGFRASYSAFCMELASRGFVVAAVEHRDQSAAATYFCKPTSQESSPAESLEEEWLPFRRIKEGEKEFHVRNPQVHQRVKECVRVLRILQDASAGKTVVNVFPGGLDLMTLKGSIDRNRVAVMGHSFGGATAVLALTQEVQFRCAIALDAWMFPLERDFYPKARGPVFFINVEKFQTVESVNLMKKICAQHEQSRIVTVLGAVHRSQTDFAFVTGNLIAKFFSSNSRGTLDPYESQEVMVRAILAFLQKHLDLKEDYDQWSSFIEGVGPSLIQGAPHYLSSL
# Sequence of Dual specificity protein kinase CLK1 (P49759 whole entry): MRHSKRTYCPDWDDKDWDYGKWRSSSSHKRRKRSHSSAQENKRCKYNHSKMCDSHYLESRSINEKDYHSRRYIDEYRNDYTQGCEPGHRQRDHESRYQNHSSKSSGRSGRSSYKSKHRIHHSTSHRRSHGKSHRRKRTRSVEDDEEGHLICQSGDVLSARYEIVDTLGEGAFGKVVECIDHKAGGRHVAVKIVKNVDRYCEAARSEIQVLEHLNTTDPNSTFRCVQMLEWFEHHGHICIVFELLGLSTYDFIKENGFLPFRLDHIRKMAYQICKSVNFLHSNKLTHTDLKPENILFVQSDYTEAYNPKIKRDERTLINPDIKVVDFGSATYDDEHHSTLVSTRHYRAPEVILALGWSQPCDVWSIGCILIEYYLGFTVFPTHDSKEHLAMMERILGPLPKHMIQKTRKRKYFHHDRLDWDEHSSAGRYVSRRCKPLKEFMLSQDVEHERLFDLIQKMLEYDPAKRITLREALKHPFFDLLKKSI
# Sequence of Paired box protein Pax-8 (Q06710 whole entry): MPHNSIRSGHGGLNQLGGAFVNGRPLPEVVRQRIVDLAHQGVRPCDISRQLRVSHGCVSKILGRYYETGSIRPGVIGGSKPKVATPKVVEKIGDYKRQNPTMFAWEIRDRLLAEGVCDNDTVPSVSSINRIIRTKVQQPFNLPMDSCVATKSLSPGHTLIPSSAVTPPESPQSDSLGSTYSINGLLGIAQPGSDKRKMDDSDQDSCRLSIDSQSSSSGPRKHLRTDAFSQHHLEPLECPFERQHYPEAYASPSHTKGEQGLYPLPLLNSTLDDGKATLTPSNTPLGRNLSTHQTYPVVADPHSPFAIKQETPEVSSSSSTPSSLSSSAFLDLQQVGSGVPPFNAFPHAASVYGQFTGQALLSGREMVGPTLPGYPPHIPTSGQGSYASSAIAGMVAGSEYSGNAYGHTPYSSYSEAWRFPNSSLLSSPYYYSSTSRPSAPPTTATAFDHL
# Sequence of Glycogen synthase kinase-3 alpha (P49840 whole entry): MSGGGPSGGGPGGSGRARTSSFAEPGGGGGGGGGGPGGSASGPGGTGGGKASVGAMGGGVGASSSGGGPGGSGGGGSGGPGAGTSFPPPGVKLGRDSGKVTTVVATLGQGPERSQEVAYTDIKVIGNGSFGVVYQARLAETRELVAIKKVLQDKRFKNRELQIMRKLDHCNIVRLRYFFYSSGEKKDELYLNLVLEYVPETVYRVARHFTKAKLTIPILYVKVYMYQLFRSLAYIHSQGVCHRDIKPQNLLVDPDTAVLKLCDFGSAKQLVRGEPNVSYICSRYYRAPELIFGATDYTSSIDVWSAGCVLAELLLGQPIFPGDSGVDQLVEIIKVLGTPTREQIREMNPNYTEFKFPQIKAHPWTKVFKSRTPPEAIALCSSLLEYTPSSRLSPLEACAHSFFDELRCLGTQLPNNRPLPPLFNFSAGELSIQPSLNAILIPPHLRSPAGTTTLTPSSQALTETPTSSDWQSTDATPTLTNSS
# Sequence of Glycogen synthase kinase-3 beta (P49841 whole entry): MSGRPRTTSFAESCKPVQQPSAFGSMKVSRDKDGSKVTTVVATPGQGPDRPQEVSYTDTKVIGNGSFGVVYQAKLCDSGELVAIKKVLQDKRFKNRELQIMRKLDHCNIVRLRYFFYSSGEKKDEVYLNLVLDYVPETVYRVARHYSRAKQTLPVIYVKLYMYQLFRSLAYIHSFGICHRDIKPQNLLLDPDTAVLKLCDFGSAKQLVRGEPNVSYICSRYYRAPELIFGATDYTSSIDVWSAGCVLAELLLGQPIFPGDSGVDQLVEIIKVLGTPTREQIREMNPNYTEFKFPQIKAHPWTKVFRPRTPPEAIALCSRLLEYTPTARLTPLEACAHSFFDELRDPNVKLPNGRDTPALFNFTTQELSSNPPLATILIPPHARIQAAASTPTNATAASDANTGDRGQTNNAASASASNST
# Sequence of Multidrug resistance protein CDR1 (P43071 whole entry, looked up): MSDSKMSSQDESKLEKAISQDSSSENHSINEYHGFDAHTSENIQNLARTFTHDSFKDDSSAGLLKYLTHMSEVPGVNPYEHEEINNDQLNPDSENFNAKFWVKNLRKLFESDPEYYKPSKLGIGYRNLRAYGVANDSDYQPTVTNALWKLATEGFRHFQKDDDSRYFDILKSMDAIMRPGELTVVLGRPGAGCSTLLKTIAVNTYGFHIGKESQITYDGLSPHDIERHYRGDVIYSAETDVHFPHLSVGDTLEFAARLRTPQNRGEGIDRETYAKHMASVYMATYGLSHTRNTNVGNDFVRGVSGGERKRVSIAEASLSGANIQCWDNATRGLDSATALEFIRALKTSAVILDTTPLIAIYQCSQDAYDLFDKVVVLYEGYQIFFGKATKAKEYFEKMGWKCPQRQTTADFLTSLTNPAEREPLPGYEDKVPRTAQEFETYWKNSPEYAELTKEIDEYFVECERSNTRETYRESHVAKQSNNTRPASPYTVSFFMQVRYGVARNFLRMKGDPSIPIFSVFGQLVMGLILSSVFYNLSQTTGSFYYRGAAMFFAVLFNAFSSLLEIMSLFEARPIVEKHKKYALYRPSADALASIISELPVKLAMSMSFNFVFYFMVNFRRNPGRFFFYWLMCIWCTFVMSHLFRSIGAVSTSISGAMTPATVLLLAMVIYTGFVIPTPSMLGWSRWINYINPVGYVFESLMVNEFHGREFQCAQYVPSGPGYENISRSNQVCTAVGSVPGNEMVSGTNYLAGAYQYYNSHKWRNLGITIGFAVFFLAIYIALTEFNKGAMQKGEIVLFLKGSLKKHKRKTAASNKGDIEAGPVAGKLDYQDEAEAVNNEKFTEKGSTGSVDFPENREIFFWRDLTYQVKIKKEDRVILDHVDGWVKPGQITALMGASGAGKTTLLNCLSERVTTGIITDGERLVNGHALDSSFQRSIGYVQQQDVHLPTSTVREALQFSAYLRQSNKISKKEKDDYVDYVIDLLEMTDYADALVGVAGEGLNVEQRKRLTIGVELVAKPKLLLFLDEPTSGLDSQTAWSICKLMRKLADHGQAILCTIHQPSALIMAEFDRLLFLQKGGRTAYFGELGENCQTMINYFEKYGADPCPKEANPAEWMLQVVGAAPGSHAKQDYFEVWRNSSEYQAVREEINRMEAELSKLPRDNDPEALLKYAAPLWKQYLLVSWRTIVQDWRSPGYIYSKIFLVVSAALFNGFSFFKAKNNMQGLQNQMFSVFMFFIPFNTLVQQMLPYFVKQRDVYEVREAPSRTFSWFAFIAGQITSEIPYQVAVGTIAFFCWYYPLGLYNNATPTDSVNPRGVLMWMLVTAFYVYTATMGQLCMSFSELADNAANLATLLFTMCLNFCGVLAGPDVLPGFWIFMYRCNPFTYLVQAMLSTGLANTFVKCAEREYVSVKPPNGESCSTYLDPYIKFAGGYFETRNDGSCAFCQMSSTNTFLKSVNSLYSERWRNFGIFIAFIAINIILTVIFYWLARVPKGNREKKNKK
# Sequence of Luciferin 4-monooxygenase (P08659 whole entry): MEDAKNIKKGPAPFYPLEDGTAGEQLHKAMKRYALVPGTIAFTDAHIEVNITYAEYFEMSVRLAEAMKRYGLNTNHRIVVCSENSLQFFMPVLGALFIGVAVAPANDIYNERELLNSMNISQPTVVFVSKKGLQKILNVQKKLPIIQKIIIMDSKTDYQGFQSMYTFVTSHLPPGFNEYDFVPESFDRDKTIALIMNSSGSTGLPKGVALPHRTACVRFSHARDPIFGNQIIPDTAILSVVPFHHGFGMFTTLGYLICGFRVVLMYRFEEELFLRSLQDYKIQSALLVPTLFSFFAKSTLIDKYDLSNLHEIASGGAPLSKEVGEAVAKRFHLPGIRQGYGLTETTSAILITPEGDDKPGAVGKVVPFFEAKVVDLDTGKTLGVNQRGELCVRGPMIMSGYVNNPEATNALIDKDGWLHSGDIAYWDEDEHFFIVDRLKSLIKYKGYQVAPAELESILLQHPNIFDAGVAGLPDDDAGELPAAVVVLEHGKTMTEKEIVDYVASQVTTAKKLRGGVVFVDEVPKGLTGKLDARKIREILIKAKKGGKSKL
# Sequence of Benomyl/methotrexate resistance protein (P28873 whole entry): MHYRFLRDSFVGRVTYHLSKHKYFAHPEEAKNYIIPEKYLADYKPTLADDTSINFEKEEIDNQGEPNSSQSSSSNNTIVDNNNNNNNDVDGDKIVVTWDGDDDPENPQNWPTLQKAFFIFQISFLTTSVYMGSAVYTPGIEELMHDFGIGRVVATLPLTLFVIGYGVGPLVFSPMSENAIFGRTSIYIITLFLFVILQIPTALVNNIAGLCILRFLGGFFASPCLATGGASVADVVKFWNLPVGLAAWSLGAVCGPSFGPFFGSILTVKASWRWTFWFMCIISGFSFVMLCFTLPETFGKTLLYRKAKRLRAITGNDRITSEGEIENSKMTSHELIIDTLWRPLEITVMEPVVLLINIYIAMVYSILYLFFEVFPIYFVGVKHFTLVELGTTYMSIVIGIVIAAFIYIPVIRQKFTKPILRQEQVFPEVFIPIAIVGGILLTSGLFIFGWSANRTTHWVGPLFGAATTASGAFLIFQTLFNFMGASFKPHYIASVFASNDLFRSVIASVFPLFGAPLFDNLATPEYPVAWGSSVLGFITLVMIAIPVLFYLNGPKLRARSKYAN
structure (smiles),measurement,setting,value
CCOC(=O)c1ccc2ncc(C(=O)OCC)c(Nc3ccc(N4CCOCC4)cc3)c2c1,EC50,[1],18.5 µM (active)
same,AC50,[2],0.227 µM (active)
same,AC50,[3],0.257 µM (active)
same,IC50,[4],> 64.6 µM (inactive)
same,AC50,[5],1.16 µM (active)
same,EC50,[6],21.4 µM (active)
same,AC50,[7],3.56 µM (active)
same,IC50,Melanocortin receptor 4,8.67 µM (active)
Cc1ccccc1/C=C\c1nc2ccccc2c(=O)n1Cc1ccccc1,IC50,Hexokinase HKDC1,> 80 µM (inactive)
same,IC50,Hexokinase-1,> 80 µM (inactive)
O=C(Nc1cccc(C(=O)O)c1)Nc1ccc2c(c1)OCO2,AC50,[8],1.53 µM (active)
same,AC50,[9],0.605 µM (active)
same,AC50,[10],1.81 µM (active)
same,IC50,[11],> 80 µM (inactive)
same,AC50,[12],5.37 µM (active)
same,AC50,[13],1.47 µM (active)
same,AC50,H4 [14],0.333 µM (active)
same,AC50,H4 [15],0.145 µM (active)
same,AC50,H4 [16],1.97 µM (active)
same,IC50,[17],> 39.8 µM (not active)
same,AC50,Paired box protein Pax-8,5.13 µM (active)
same,IC50,Jurkat,1.77 µM (active)
same,AC50,[18],2.74 µM (active)
same,AC50,[19],3.34 µM (active)
COc1ccc(S(=O)(=O)N(C)C[C@H]2Oc3c(NC(=O)NC4CCCCC4)cccc3C(=O)N([C@H](C)CO)C[C@@H]2C)cc1,EC50,[20],10.4 µM (active)
same,EC50,[21],10.1 µM (active)
O=C(N1CCCC1)n1ncc(-c2ccc(Oc3ccccc3)cc2)n1,IC50,[22],0.002 µM (active)
